Experimental data taken from publication PMC7333355, “Functional and Regulatory Characterization of Three AMTs in Maize Roots” (Frontiers in Plant Science, 2020).
Blank lines part the entries; values can stand above or below the molecule they belong to.

Key:
AtAMT1;3 = target: T1, AtAMT1;3 (Arabidopsis thaliana, UniProt Q9SQH9); details: 1 mM ammonium chloride
T1 construct: gene AMT1-3

ZmAMT1.3 = target: T2, ZmAMT1.3 (Zea mays, UniProt B4F978); assay: two-electrode voltage clamp, Xenopus oocytes, inhibition of ammonium-induced current; type: cell-based; details: read-out: % inhibition at 10 mM
T2 construct: full-length cDNA from maize root RNA in pCI vector, expressed in Xenopus laevis oocytes; no tag stated
T2 sequence (B4F978 1-488): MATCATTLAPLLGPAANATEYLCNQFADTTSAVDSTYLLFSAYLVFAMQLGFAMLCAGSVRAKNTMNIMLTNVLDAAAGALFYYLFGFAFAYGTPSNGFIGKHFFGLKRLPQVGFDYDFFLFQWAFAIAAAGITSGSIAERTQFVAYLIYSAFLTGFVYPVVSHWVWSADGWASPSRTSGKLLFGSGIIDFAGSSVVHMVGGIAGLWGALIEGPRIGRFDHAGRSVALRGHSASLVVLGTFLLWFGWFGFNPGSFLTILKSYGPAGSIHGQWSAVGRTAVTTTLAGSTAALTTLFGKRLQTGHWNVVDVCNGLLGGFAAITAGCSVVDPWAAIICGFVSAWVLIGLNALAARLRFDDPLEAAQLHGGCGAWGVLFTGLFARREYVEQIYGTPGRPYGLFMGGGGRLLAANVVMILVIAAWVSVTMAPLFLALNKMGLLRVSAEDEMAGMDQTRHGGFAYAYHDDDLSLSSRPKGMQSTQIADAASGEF

ZmAMT1.1a = target: T3, ZmAMT1.1a (Zea mays, UniProt B4FRK2); assay: as above; type: cell-based; details: read-out: % inhibition at 10 mM
T3 construct: full-length cDNA from maize root RNA in pCI vector, expressed in Xenopus laevis oocytes; no tag stated
T3 sequence (B4FRK2 1-498): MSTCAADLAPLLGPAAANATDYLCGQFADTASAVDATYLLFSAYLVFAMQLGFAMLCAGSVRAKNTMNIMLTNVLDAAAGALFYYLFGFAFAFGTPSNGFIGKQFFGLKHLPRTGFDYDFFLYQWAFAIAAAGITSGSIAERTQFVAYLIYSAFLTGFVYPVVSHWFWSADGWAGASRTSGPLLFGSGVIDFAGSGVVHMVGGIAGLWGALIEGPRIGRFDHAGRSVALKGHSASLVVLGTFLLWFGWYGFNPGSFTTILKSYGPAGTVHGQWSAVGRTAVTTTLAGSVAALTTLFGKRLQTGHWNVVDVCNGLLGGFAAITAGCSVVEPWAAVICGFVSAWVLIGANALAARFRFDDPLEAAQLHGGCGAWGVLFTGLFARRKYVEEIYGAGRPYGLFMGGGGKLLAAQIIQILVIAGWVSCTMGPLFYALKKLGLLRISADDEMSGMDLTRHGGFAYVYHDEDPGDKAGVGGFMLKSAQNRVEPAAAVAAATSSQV

ZmAMT1.1b = target: T4, ZmAMT1.1b (Zea mays, UniProt B4FV06); assay: as above; type: cell-based; details: read-out: % inhibition at 10 mM
T4 construct: full-length cDNA from maize root RNA in pCI vector, expressed in Xenopus laevis oocytes; no tag stated
T4 sequence (B4FV06 1-489): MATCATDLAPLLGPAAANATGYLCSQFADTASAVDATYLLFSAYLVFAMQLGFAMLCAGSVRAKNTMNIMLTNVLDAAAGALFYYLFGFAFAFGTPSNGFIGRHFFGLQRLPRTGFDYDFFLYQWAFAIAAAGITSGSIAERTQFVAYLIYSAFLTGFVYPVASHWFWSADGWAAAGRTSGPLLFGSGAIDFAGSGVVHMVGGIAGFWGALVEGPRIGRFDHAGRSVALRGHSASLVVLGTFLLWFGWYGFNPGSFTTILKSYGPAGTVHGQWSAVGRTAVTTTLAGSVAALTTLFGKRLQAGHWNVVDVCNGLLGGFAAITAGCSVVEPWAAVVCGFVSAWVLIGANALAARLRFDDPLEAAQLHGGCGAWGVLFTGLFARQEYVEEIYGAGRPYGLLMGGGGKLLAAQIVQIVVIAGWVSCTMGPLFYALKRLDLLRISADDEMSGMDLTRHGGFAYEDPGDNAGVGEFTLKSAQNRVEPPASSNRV

[1] = substrate: N; assay: cells, lysate or membranes; details: added as chloride
[2] = substrate: CN; assay: two-electrode voltage clamp, Xenopus oocytes, Michaelis-Menten fit of induced currents; type: cell-based, Zea mays; details: pH 7.4, -140 mV, added as chloride

T1 sequence (Q9SQH9 whole entry): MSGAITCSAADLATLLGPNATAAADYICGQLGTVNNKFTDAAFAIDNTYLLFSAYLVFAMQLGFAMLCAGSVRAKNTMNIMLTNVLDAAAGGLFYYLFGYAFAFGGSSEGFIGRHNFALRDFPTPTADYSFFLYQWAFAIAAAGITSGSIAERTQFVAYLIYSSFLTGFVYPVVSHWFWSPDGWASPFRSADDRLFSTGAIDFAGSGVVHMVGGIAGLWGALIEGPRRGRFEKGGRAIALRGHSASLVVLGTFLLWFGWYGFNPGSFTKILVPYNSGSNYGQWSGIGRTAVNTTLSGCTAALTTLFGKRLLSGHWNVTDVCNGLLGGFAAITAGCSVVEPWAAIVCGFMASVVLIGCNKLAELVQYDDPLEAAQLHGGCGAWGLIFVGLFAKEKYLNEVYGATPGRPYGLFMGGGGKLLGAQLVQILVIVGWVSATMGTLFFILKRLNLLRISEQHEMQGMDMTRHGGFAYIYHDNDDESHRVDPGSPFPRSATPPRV

Molecule: N [ammonium]
- two-electrode voltage clamp, Xenopus oocytes, induced current (AtAMT1;3): Significant ammonium-induced currents were detected in AtAMT1;3-expressing oocytes

- inhibition at 10000 µM (ZmAMT1.3): 55.4%
- inhibition at 10000 µM (ZmAMT1.1a): 69.9%
- inhibition at 10000 µM (ZmAMT1.1b): 67.5%
Molecule: NC(=O)CC[C@H](N)C(=O)O [glutamine]

B1: ZmAMT1.3 (Zea mays) (protein)
chain: MATCATTLAPLLGPAANATEYLCNQFADTTSAVDSTYLLFSAYLVFAMQLGFAMLCAGSVRAKNTMNIMLTNVLDAAAGALFYYLFGFAFAYGTPSNGFIGKHFFGLKRLPQVGFDYDFFLFQWAFAIAAAGITSGSIAERTQFVAYLIYSAFLTGFVYPVVSHWVWSADGWASPSRTSGKLLFGSGIIDFAGSSVVHMVGGIAGLWGALIEGPRIGRFDHAGRSVALRGHSASLVVLGTFLLWFGWFGFNPGSFLTILKSYGPAGSIHGQWSAVGRTAVTTTLAGSTAALTTLFGKRLQTGHWNVVDVCNGLLGGFAAITAGCSVVDPWAAIICGFVSAWVLIGLNALAARLRFDDPLEAAQLHGGCGAWGVLFTGLFARREYVEQIYGTPGRPYGLFMGGGGRLLAANVVMILVIAAWVSVTMAPLFLALNKMGLLRVSAEDEMAGMDQTRHGGFAYAYHDDDLSLSSRPKGMQSTQIADAASGEF
- Km ([1]; pH 7.4, -140 mV (potential inferred from Figure 3D range)): 18.6 ± 2.8 µM

B2: ZmAMT1.1b (Zea mays) (protein)
chain: MATCATDLAPLLGPAAANATGYLCSQFADTASAVDATYLLFSAYLVFAMQLGFAMLCAGSVRAKNTMNIMLTNVLDAAAGALFYYLFGFAFAFGTPSNGFIGRHFFGLQRLPRTGFDYDFFLYQWAFAIAAAGITSGSIAERTQFVAYLIYSAFLTGFVYPVASHWFWSADGWAAAGRTSGPLLFGSGAIDFAGSGVVHMVGGIAGFWGALVEGPRIGRFDHAGRSVALRGHSASLVVLGTFLLWFGWYGFNPGSFTTILKSYGPAGTVHGQWSAVGRTAVTTTLAGSVAALTTLFGKRLQAGHWNVVDVCNGLLGGFAAITAGCSVVEPWAAVVCGFVSAWVLIGANALAARLRFDDPLEAAQLHGGCGAWGVLFTGLFARQEYVEEIYGAGRPYGLLMGGGGKLLAAQIVQIVVIAGWVSCTMGPLFYALKRLDLLRISADDEMSGMDLTRHGGFAYEDPGDNAGVGEFTLKSAQNRVEPPASSNRV
- Km ([1]; pH 7.4, -140 mV (potential inferred from Figure 2D range)): 15.6 µM

B3: ZmAMT1.1a (Zea mays) (protein)
chain: MSTCAADLAPLLGPAAANATDYLCGQFADTASAVDATYLLFSAYLVFAMQLGFAMLCAGSVRAKNTMNIMLTNVLDAAAGALFYYLFGFAFAFGTPSNGFIGKQFFGLKHLPRTGFDYDFFLYQWAFAIAAAGITSGSIAERTQFVAYLIYSAFLTGFVYPVVSHWFWSADGWAGASRTSGPLLFGSGVIDFAGSGVVHMVGGIAGLWGALIEGPRIGRFDHAGRSVALKGHSASLVVLGTFLLWFGWYGFNPGSFTTILKSYGPAGTVHGQWSAVGRTAVTTTLAGSVAALTTLFGKRLQTGHWNVVDVCNGLLGGFAAITAGCSVVEPWAAVICGFVSAWVLIGANALAARFRFDDPLEAAQLHGGCGAWGVLFTGLFARRKYVEEIYGAGRPYGLFMGGGGKLLAAQIIQILVIAGWVSCTMGPLFYALKKLGLLRISADDEMSGMDLTRHGGFAYVYHDEDPGDKAGVGGFMLKSAQNRVEPAAAVAAATSSQV
notes: full-length cDNA from maize root RNA in pCI vector, expressed in Xenopus laevis oocytes; no tag stated
- Km ([1]; pH 7.4, -140 mV): 9.9 ± 1.9 µM
- Km [2]: 1900 ± 400 µM
